# Test results taken from patent US6335350B1, “Acetamide and substituted acetamide-containing thiourea inhibitors of herpes viruses” (American Home Products Corporation, priority 1998, dated 2002).
# Where two headings read alike, the source gives them in different places.
# How the values were obtained:
# [1] = test system: HSV-1; experiment: HSV Antiviral (ELISA) Assay; format: cell-based, herpes simplex virus type 1; conditions: for IC50: Human alphaherpesvirus 1, Vero, read-out: IC50 Ug/ml HSV
# Experimental: Vero cells (ATCC #CCL-81) are plated on 96-well tissue culture plates at 3.5×10^4 cells per 100 μl tissue culture DMEM (Dulbecco's modified Eagle media) supplemented with 2% fetal bovine serum (FBS) in each well. After overnight incubation @ 37° C. (in 5% CO2) and 30 minutes prior to infection with HSV-1 (multiplicity of infection equal to 0.006), cells are either untreated, or treated with test compound (multiple concentrations) or reference standard drug control. After approximately 24 hours post-infection incubation @ 37° C. (in 5% CO2), cells are fixed for ELISA assay. The primary antibody is murine anti-HSV glycoprotein D monoclonal primary antibody and the secondary antibody is goat anti-mouse IgG linked to β-galactosidase. Thus the extent of viral replication is determined by assessing β-galactosidase activity by quantifying the generation of the 4-methyl umbelliferone fluorescent cleavage product after addition of the methyl umbelliferyl-β-D-galactoside (Sigma #M1633) substrate on a microfluorimeter (365 nm for excitation and 450 nm for emission). Antiviral activity (IC50) of the test compound is determined by comparing the flourescence obtained in absence of compound to that obtained in the presence of compound.
# [2] = test system: HCMV wild-type; experiment: HCMV yield assay; format: cell-based, human cytomegalovirus; conditions: for IC50: Human betaherpesvirus 5, Fibroblast, read-out: IC50 Ug/ml HCMV
# Experimental: Yield assay. Monolayer cultures of human foreskin fibroblasts are infected with HCMV wild-type, typically at a multiplicity of infection equal to 0.2, in the presence of inhibitor compound (varying concentrations). At three days post-infection, total virus produced in these cultures (i.e. virus yield) is assessed by harvesting and titering the virus in 12-well plates of cultured human foreskin fibroblasts (done in the absence of inhibitor). Plaques are quantified at 2 weeks post-infection. An inhibitor of HCMV is identified by the reduction in titer of virus yield in the presence, compared to the titer in the absence of compound. In this assay, the relative anti-HCMV activity of an inhibitor is typically determined by calculating the IC50 or IC90 value, that is, the amount of compound required to reduce the virus yield by 50% or 90%, respectively. Table I describes IC50 data for compounds tested against HCMV.
# [3] = test system: VZV strain Ellen; experiment: VZV Antiviral (ELISA) Assay; format: cell-based, varicella-zoster virus; conditions: human foreskin fibroblast cells; for IC50 / inhibition at 10 µg/mL: Human alphaherpesvirus 3, Fibroblast; for IC50: read-out: IC50 Ug/ml VZV; for inhibition at 10 µg/mL: read-out: % inhibition 10 ug/ml VZV, 10 ug/ml
# Experimental: For the generation of stock VZV to be used in the assay, VZV strain Ellen (ATCC #VR-1367) is used to infect human foreskin fibroblast (HFF) cells at low multiplicity (less than 0.1) and incubated overnight at 37° C. in 5% CO2. After the overnight incubation, the mixture of uninfected and VZV-infected HFF infected cells are then harvested and added to each well of 96-well plates (3.5×10^4 cells in 100 μl DMEM supplemented with 2% FBS) which contain test compound or the reference standard drug control (in 100 μl DMEM supplemented with 2% FBS per well). These cells are incubated for three days at 37° C. in 5% CO2, then fixed for ELISA assay. The primary antibody is murine anti-VZV glycoprotein II monoclonal antibody (Applied Biosystems, Inc. #13-145-100) and the secondary antibody is goat anti-mouse IgG linked to β-galactosidase. Thus the extent of viral replication is determined by assessing β-galactosidase activity by quantifying the generation of the 4-methyl umbelliferone fluorescent cleavage product after addition of the methyl umbelliferyl-β-D-galactoside (Sigma #M1633) substrate on a microfluorimeter (365 nm for excitation and 450 nm for emission). Antiviral activity (IC50) of the test compound is determined by comparing the flourescence obtained in absence of compound to that obtained in the presence of compound.
Compound,"IC50 ([1]; Vero cells, HSV-1)",IC50 ([2]; human foreskin fibroblasts),IC50 [3],inhibition at 10 µg/mL [3],IC50 [1],IC50 [2],"IC50 Ug/ml HSV ([1]; Vero cells, HSV-1)",IC50 Ug/ml HCMV ([2]; human foreskin fibroblasts),% inhibition 10 ug/ml VZV [3],IC50 Ug/ml VZV [3]
"CC(=O)Nc1ccc(NC(=S)Nc2cc(Cl)c(OCc3ccccc3)c(Cl)c2)cc1 [Example 178, N-{4-[3-(4-Benzyloxy-3,5-dichloro-phenyl)-thioureido]-phenyl}-acetamide]",> 50 µg/mL,> 10 µg/mL,> 10 µg/mL,32%,–,–,–,–,–,–
"CC(=O)Nc1ccc(NC(=S)Nc2cc(Cl)c(OCC#N)c(Cl)c2)cc1 [Example 886, N-(4-{3-[3,5-Dichloro-4-(2-nitrilo-ethoxy)-phenyl]-thioureido}-phenyl)-acetamide]",25 µg/mL,10 µg/mL,> 15 µg/mL,50%,–,–,–,–,–,–
"CC(=O)Nc1ccc(NC(=S)Nc2ccccc2)cc1 [Example 814, N-[4-(3-Phenyl-thioureido)-phenyl]-acetamide]",–,–,> 10 µg/mL,15%,> 10 µg/mL,> 10 µg/mL,–,–,–,–
CC(=O)Nc1ccc(NC(=S)Nc2ccc(N(C)C3CCCCC3)c(Cl)c2)cc1 [Example 203],–,–,–,–,–,–,>10 Ug/ml,2 Ug/ml,22%,>10 Ug/ml
"COc1c(Br)cc(NC(=S)Nc2ccc(NC(C)=O)cc2)c(OC)c1Br [Example 894, N-{4-[3-(3,5-Dibromo-2,4-dimethoxy-phenyl)-thioureido]-phenyl}-acetamide]",12 µg/mL,7 µg/mL,> 10 µg/mL,56%,–,–,–,–,–,–
"CC(=O)Nc1ccc(NC(=S)Nc2ccc(N3CCN(C)CC3)c(Cl)c2)cc1 [Example 243, N-(4-{3-[3-Chloro-4-(4-methyl-piperazin-1-yl)-phenyl]-thioureido}-phenyl)-acetamide]",> 50 µg/mL,40 µg/mL,> 10 µg/mL,4%,–,–,–,–,–,–
"COc1cc(OC)c(NC(=S)Nc2ccc(NC(C)=O)c(C(=O)O)c2)cc1Cl [Example 337, 2-Acetylamino-5-[3-(5-chloro-2,4-dimethoxy-phenyl)-thioureido]-benzoic acid]",> 50 µg/mL,> 50 µg/mL,> 10 µg/mL,31%,–,–,–,–,–,–
"COc1ccc(NC(=S)Nc2ccc(NC(C)=O)cc2)c(NCc2ccccc2)c1 [Example 245, N-{4-[3-(2-Benzylamino-4-methoxy-phenyl)-thioureido]-phenyl}-acetamide]",> 10 µg/mL,> 10 µg/mL,3.5 µg/mL,73%,–,–,–,–,–,–
"CCOc1cc(OC)c(NC(=S)Nc2ccc(NC(C)=O)cc2)cc1Cl [Example 832, N-{4-[3-(5-Chloro-4-ethoxy-2-methoxy-phenyl)-thioureido]-phenyl}-acetamide]",9 µg/mL,> 50 µg/mL,> 10 µg/mL,15%,–,–,–,–,–,–
"CCCCOc1ccc(NC(=S)Nc2ccc(NC(C)=O)cc2)cc1Cl [Example 266, N-{4-[3-(4-Butoxy-3-chloro-phenyl)-thioureido]-phenyl}-acetamide]",12 µg/mL,> 10 µg/mL,> 10 µg/mL,10%,–,–,–,–,–,–
"COc1ccc(NC(=S)Nc2ccc(NC(C)=O)cc2)c(OC)c1 [Example 103, N-{4-[3-(2,4-Dimethoxy-phenyl)-thioureido]-phenyl}-acetamide]",25 µg/mL,> 50 µg/mL,> 10 µg/mL,28%,–,–,–,–,–,–
"CC(=O)Nc1ccc(NC(=S)Nc2cccc([N+](=O)[O-])c2)cc1 [Example 124, N-{4-[3-(3-Nitro-phenyl)-thioureido]-phenyl}-acetamide]",50 µg/mL,50 µg/mL,> 10 µg/mL,0%,–,–,–,–,–,–
"COc1cc(OC)c(NC(=S)Nc2ccc(NC(C)=O)cc2C(F)(F)F)cc1Cl [Example 358, N-{4-[3-(5-Chloro-2,4-dimethoxy-phenyl)-thioureido]-3-trifluoromethyl-phenyl}-acetamide]",2 µg/mL,> 10 µg/mL,> 10 µg/mL,31%,–,–,–,–,–,–
"COc1cc(N2CCCCC2)c(NC(=S)Nc2ccc(NC(C)=O)cc2)cc1Cl [Example 229, N-{4-[3-(5-Chloro-4-methoxy-2-piperidin-1-yl-phenyl)-thioureido]-phenyl}-acetamide]",15 µg/mL,7 µg/mL,> 10 µg/mL,35%,–,–,–,–,–,–
"COc1cc(OCc2ccccc2)c(NC(=S)Nc2ccc(NC(C)=O)cc2)cc1Cl [Example 835, N-{4-[3-(2-Benzyloxy-5-chloro-4-methoxy-phenyl)-thioureido]-phenyl}-acetamide]",8 µg/mL,> 10 µg/mL,> 10 µg/mL,38%,–,–,–,–,–,–
"CC(=O)Nc1ccc(NC(=S)Nc2cc(Cl)ccc2Cl)cc1 [Example 930, N-{4-[3-(2,5-Dichloro-phenyl)-thioureido]-phenyl}-acetamide]",10 µg/mL,> 10 µg/mL,> 10 µg/mL,42%,–,–,–,–,–,–
"COc1cc(OC)c(NC(=S)Nc2ccc(NC(C)=O)cc2)cc1F [Example 198, N-{4-[3-(5-Fluoro-2,4-dimethoxy-phenyl)-thioureido]-phenyl}-acetamide]",9 µg/mL,> 50 µg/mL,> 10 µg/mL,36%,–,–,–,–,–,–
"CC(=O)Nc1ccc(NC(=S)Nc2ccc(Br)c(Cl)c2)cc1 [Example 904, N-{4-[3-(4-Bromo-3-chloro-phenyl)-thioureido]-phenyl}-acetamide]",4 µg/mL,1 µg/mL,> 10 µg/mL,26%,–,–,–,–,–,–
"CCOC(=O)Nc1ccc(NC(=S)Nc2ccc(NC(C)=O)cc2)cc1Cl [Example 313, {4-[3-(4-Acetylamino-phenyl)-thioureido]-2-chloro-phenyl}-carbamic acid ethyl ester]",> 10 µg/mL,> 10 µg/mL,> 10 µg/mL,36%,–,–,–,–,–,–
CC(=O)Nc1ccc(NC(=S)Nc2ccc(N(C)CCN(C)C)c(Cl)c2)cc1 [Example 300],–,–,–,–,–,–,>50 Ug/ml,1.5 Ug/ml,23%,>10 Ug/ml
"CC(=O)Nc1ccc(NC(=S)Nc2ccc(O)cc2O)cc1 [Example 130, N-{4-[3-(2,4-Dihydroxy-phenyl)-thioureido]-phenyl}-acetamide]",> 50 µg/mL,30 µg/mL,> 10 µg/mL,30%,–,–,–,–,–,–
"CC(=O)Nc1ccc(NC(=S)Nc2cc(Cl)c(-n3cccc3)cc2Oc2ccc(Cl)cc2)cc1 [Example 900, N-(4-{3-[5-Chloro-2-(4-chloro-phenoxy)-4-pyrrol-1-yl-phenyl]-thioureido}-phenyl)-acetamide]",> 10 µg/mL,2 µg/mL,2.5 µg/mL,124%,–,–,–,–,–,–
"CCC(=O)Nc1ccc(NC(=S)NC(C)c2ccc(F)cc2)cc1 (stereo not drawn) [Example 813, N-(4-{3-[1-(4-Fluoro-phenyl)-ethyl]-thioureido}-phenyl)-propionamide]",–,–,3.5 µg/mL,–,–,–,–,–,–,–
"CC(NC(=S)Nc1ccc(NC(=O)Cc2ccccc2)cc1)c1ccc(F)cc1 (stereo not drawn) [Example 751, N-(4-{3-[1-(4-Fluoro-phenyl)-ethyl]-thioureido}-phenyl)-2-phenyl-acetamide]",> 10 µg/mL,> 0.5 µg/mL,–,–,–,–,–,–,–,–
N-(4-{3-[1-(4-Fluoro-phenyl)-ethyl]-thioureido}-phenyl)-acetamide [Example 744],–,–,–,–,–,–,>10 Ug/ml,>0.5 Ug/ml,–,–
